Reference: PubChem BioAssay AID192 (DTP/NCI, 2004)
Inconclusive results and toxic doses are left out.

System: BDF1 mice, B16 melanoma ip, median survival T/C
Experiment: NCI In Vivo Anticancer Drug Screen. Data for tumor model B16 Melanoma (intraperitoneal) in B6D2F1 (BDF1) mice
Settings: endpoint: median survival time, higher = longer survival
Protocol: The antitumor activity of compounds was measured in mice bearing transplantable tumors. Survival or tumor size were measured and the results are expressed as the measurement made in the treated group (T) divided by the measurement made in the vehicle treated control group (C). The tumor model used in this assay is B16 Melanoma (intraperitoneal) in B6D2F1 (BDF1) mice

[1] = dose: 12.5 mg/kg/injection, schedule: Q01DX009 (ip), vehicle: Klucel (hydroxypropylcellulose) (HPC)
[2] = dose: 25.0 mg/kg/injection, schedule: Q01DX009 (ip), vehicle: Klucel (hydroxypropylcellulose) (HPC)
[3] = dose: 50.0 mg/kg/injection, schedule: Q01DX009 (ip), vehicle: Klucel (hydroxypropylcellulose) (HPC)
[4] = dose: 100.0 mg/kg/injection, schedule: Q01DX009 (ip), vehicle: Klucel (hydroxypropylcellulose) (HPC)
[5] = dose: 25.0 mg/kg/injection, schedule: Q01DX009 (ip), vehicle: saline with Tween-80
[6] = dose: 50.0 mg/kg/injection, schedule: Q01DX009 (ip), vehicle: saline with Tween-80
[7] = dose: 50.0 mg/kg/injection, schedule: Q04DX003 (ip), vehicle: Klucel (hydroxypropylcellulose) (HPC)
[8] = dose: 100.0 mg/kg/injection, schedule: Q04DX003 (ip), vehicle: Klucel (hydroxypropylcellulose) (HPC)
[9] = dose: 12.5 mg/kg/injection, schedule: Q01DX009 (ip), vehicle: saline
[10] = dose: 50.0 mg/kg/injection, schedule: Q01DX009 (ip), vehicle: saline
[11] = dose: 100.0 mg/kg/injection, schedule: Q01DX009 (ip), vehicle: saline
[12] = dose: 200.0 mg/kg/injection, schedule: Q01DX009 (ip), vehicle: Klucel (hydroxypropylcellulose) (HPC)
[13] = dose: 200.0 mg/kg/injection, schedule: Q01DX009 (ip), vehicle: saline
[14] = dose: 200.0 mg/kg/injection, schedule: Q04DX003 (ip), vehicle: Klucel (hydroxypropylcellulose) (HPC)
[15] = dose: 200.0 mg/kg/injection, schedule: Q01DX009 (ip), vehicle: saline with Tween-80
[16] = dose: 400.0 mg/kg/injection, schedule: Q01DX009 (ip), vehicle: saline with Tween-80

## COc1ccc(CN(CCN(C)C)c2ccccn2)cc1
[1]
  T/C: 100 % of control
[2]
  T/C: 96 % of control
[3]
  T/C: 93 % of control

## COc1cc2cccc(OC)c(=O)c2c(O)c1OC
[2]
  T/C: 97 % of control
[3]
  T/C: 105 % of control
[4]
  T/C: 97 % of control

## CC1=CC(=O)C(CO)=CC1=O
dose: 0.05 mg/kg/injection, schedule: Q01DX009 (ip), vehicle: saline with Tween-80
  T/C: 94 % of control
dose: 0.1 mg/kg/injection, schedule: Q01DX009 (ip), vehicle: saline with Tween-80
  T/C: 103 % of control
dose: 0.2 mg/kg/injection, schedule: Q01DX009 (ip), vehicle: saline with Tween-80
  T/C: 93 % of control
dose: 0.38 mg/kg/injection, schedule: Q01DX009 (ip), vehicle: saline with Tween-80
  T/C: 93 % of control
dose: 0.4 mg/kg/injection, schedule: Q01DX009 (ip), vehicle: saline with Tween-80
  T/C: 94 % of control

## CCC[CH2][Sn]1([CH2]CCC)[O]OC2(CCCCC2)[O]1
dose: 1.25 mg/kg/injection, schedule: Q01DX009 (ip), vehicle: saline with Tween-80
  T/C: 113 % of control
dose: 2.5 mg/kg/injection, schedule: Q01DX009 (ip), vehicle: saline with Tween-80
  T/C: 100 % of control

## O=C(O)c1cc(C(=O)O)cc([N+](=O)[O-])c1
[5]
  T/C: 97 % of control
[6]
  T/C: 100 % of control

## Cc1cccc(-c2nc3cc(Cl)ccc3c(=O)o2)c1
[2]
  T/C: 100 % of control
dose: 25.0 mg/kg/injection, schedule: Q04DX003 (ip), vehicle: Klucel (hydroxypropylcellulose) (HPC)
  T/C: 103 % of control
[3]
  T/C: 107 % of control
[7]
  T/C: 103 % of control
[4]
  T/C: 100 % of control
[8]
  T/C: 106 % of control

## COc1cc(C=Nc2ccc(-n3ccnc3C)cc2)ccc1N(CCCl)CCCl
dose: 2.5 mg/kg/injection, schedule: Q01DX009 (ip), vehicle: Klucel (hydroxypropylcellulose) (HPC)
  T/C: 105 % of control

## Nc1ncnc2c1ncn2C1OC(COP(=O)(O)O)C(O)C1O (stereo unspecified)
[9]
  T/C: 124 % of control
dose: 12.5 mg/kg/injection, schedule: Q01DX009 (ip), vehicle: water
  T/C: 112 % of control
dose: 20.0 mg/kg/injection, schedule: Q01DX009 (ip), vehicle: water
  T/C: 113 % of control
dose: 25.0 mg/kg/injection, schedule: Q01DX009 (ip), vehicle: water
  T/C: 108 % of control
dose: 40.0 mg/kg/injection, schedule: Q01DX009 (ip), vehicle: water
  T/C: 110 % of control
[10]
  T/C: 116 % of control
dose: 50.0 mg/kg/injection, schedule: Q01DX009 (ip), vehicle: water
  T/C: 108 % of control
dose: 80.0 mg/kg/injection, schedule: Q01DX009 (ip), vehicle: water
  T/C: 104 % of control
[11]
  T/C: 121 % of control
dose: 100.0 mg/kg/injection, schedule: Q01DX009 (ip), vehicle: water
  T/C: 118 % of control
dose: 160.0 mg/kg/injection, schedule: Q01DX009 (ip), vehicle: water
  T/C: 113 % of control
dose: 200.0 mg/kg/injection, schedule: Q01DX009 (ip), vehicle: water
  T/C: 118 % of control
dose: 320.0 mg/kg/injection, schedule: Q01DX009 (ip), vehicle: water
  T/C: 124 % of control
dose: 400.0 mg/kg/injection, schedule: Q01DX009 (ip), vehicle: water
  T/C: 117 % of control

## [Cl][Pt+2][Cl].[NH-]CCO.[NH-]CCO
dose: 3.13 mg/kg/injection, schedule: Q01DX009 (ip), vehicle: saline
  T/C: 100 % of control
dose: 6.25 mg/kg/injection, schedule: Q01DX009 (ip), vehicle: saline
  T/C: 104 % of control
[9]
  T/C: 104 % of control

## NC(=NCc1ccccc1)c1ccc(N=C(N)c2ccc(C(N)=Nc3ccc(C(N)=NCc4ccccc4)cc3)cc2)cc1
dose: 2.5 mg/kg/injection, schedule: Q01DX009 (ip), vehicle: saline
  T/C: 97 % of control
dose: 5.0 mg/kg/injection, schedule: Q01DX009 (ip), vehicle: saline
  T/C: 96 % of control
dose: 10.0 mg/kg/injection, schedule: Q01DX009 (ip), vehicle: saline
  T/C: 92 % of control
dose: 20.0 mg/kg/injection, schedule: Q01DX009 (ip), vehicle: saline
  T/C: 96 % of control

## COC(=O)C(CSCc1ccccc1)NC(=O)OCc1ccccc1 (stereo unspecified)
[3]
  T/C: 87 % of control

## CCCCCCCCCCCC(=O)[O][Sn]([CH2]c1ccccc1)([CH2]c1ccccc1)[CH2]c1ccccc1
dose: 1.25 mg/kg/injection, schedule: Q04DX003 (ip), vehicle: other
  T/C: 107 % of control
dose: 2.5 mg/kg/injection, schedule: Q04DX003 (ip), vehicle: other
  T/C: 105 % of control
dose: 5.0 mg/kg/injection, schedule: Q04DX003 (ip), vehicle: other
  T/C: 95 % of control

## C[C@]12CC[C@@H]3c4ccc(OC(=O)Cc5ccc(N(CCCl)CCCl)cc5)cc4CC[C@H]3[C@@H]1CC[C@@H]2OC(=O)Cc1ccc(N(CCCl)CCCl)cc1
[1]
  T/C: 95 % of control
[2]
  T/C: 108 % of control
[3]
  T/C: 104 % of control
dose: 64.0 mg/kg/injection, schedule: Q02DX009 (ip), vehicle: Klucel (hydroxypropylcellulose) (HPC)
  T/C: 95 % of control
[4]
  T/C: 111 % of control
[12]
  T/C: 118 % of control
dose: 256.0 mg/kg/injection, schedule: Q02DX009 (ip), vehicle: Klucel (hydroxypropylcellulose) (HPC)
  T/C: 90 % of control
dose: 400.0 mg/kg/injection, schedule: Q01DX009 (ip), vehicle: Klucel (hydroxypropylcellulose) (HPC)
  T/C: 123 % of control

## NS(=O)(=O)OCCCCCCCOS(N)(=O)=O
[5]
  T/C: 150 % of control
[6]
  T/C: 181 % of control

## CCN(CC)CCOC(=O)CC1CCCCC1
[10]
  T/C: 99 % of control
[11]
  T/C: 96 % of control
[13]
  T/C: 95 % of control

## S=c1[nH]nc(NC2CCCCC2)s1
[2]
  T/C: 97 % of control
[3]
  T/C: 91 % of control
[8]
  T/C: 97 % of control
[14]
  T/C: 91 % of control

## CCCCC(SC(CC)(C(C)=O)c1ccccc1)C(N)=O (stereo unspecified)
[6]
  T/C: 89 % of control
dose: 100.0 mg/kg/injection, schedule: Q01DX009 (ip), vehicle: saline with Tween-80
  T/C: 108 % of control
[15]
  T/C: 87 % of control
[16]
  T/C: 92 % of control

## C[n+]1ccccc1/C=C/c1cccc([N+](=O)[O-])c1
dose: 5.0 mg/kg/injection, schedule: Q01DX009 (ip), vehicle: saline with Tween-80
  T/C: 110 % of control
dose: 5.0 mg/kg/injection, schedule: Q04DX003 (ip), vehicle: saline with Tween-80
  T/C: 105 % of control
dose: 10.0 mg/kg/injection, schedule: Q01DX009 (ip), vehicle: saline with Tween-80
  T/C: 100 % of control
dose: 20.0 mg/kg/injection, schedule: Q01DX009 (ip), vehicle: saline with Tween-80
  T/C: 100 % of control
dose: 20.0 mg/kg/injection, schedule: Q04DX003 (ip), vehicle: saline with Tween-80
  T/C: 89 % of control

## NC(CC(=O)O)C(=O)OCc1ccccc1 (stereo unspecified)
dose: 25.0 mg/kg/injection, schedule: Q01DX009 (ip), vehicle: saline
  T/C: 95 % of control
[10]
  T/C: 108 % of control
[11]
  T/C: 114 % of control
[13]
  T/C: 105 % of control

## CCC(C)c1ccccc1OC(=O)Nc1ccc(OC)cc1 (stereo unspecified)
[3]
  T/C: 100 % of control
[7]
  T/C: 106 % of control
[4]
  T/C: 103 % of control
[8]
  T/C: 106 % of control
[12]
  T/C: 100 % of control
[14]
  T/C: 103 % of control

## CC(C)CC(NC(=O)OCc1ccccc1)C(=O)O (stereo unspecified)
dose: 100.0 mg/kg/injection, schedule: Q04DX003 (ip), vehicle: saline with Tween-80
  T/C: 102 % of control
[15]
  T/C: 106 % of control
[16]
  T/C: 121 % of control

## CCOC(=O)c1c(NC(=O)CCC(=O)Nc2sc(C)c(C)c2C(=O)OCC)sc(C)c1C
dose: 0.09 mg/kg/injection, schedule: Q01DX009 (ip), vehicle: Klucel (hydroxypropylcellulose) (HPC)
  T/C: 100 % of control
dose: 0.19 mg/kg/injection, schedule: Q01DX009 (ip), vehicle: Klucel (hydroxypropylcellulose) (HPC)
  T/C: 95 % of control
dose: 0.39 mg/kg/injection, schedule: Q01DX009 (ip), vehicle: Klucel (hydroxypropylcellulose) (HPC)
  T/C: 100 % of control
dose: 0.78 mg/kg/injection, schedule: Q01DX009 (ip), vehicle: Klucel (hydroxypropylcellulose) (HPC)
  T/C: 89 % of control
dose: 1.56 mg/kg/injection, schedule: Q01DX009 (ip), vehicle: Klucel (hydroxypropylcellulose) (HPC)
  T/C: 95 % of control
